Source: patent US20020127228A1, “PGT and apoptosis” (WELFIDE CORPORATION, priority 1998, published 2002)

Experiments:
[1] = system: rat cerebral cortical neurons; experiment: Apoptosis induced by amyloid beta peptide in rat cerebral cortical neurons, Hoechst 33342; assay type: cell-based
Procedure: The cortex region of embryonic day 17 or 18 rat cerebrum was extracted on ice. Cells were dispersed using a neuron dispersal solution (Sumilon) after sectioning. Afterwards, cells were dispersed to a density of 1.5×10^5 cells/cm^2 in a culturing flask that was coated with polyethyleneimine beforehand. After 4 days of culturing, the following experiment was provided. Therefore, as the culture medium, Neurobasal medium (Gibco) adding with B27 supplement (1/50 volume), 2-mercaptoethanol (27.5 μM), L-glutamic acid (25 μM), and glutamine (0.5 mM) was used.
Amyloid beta peptide 25-35 (Aβ25-35) was dissolved in distilled water to a concentration of 1 mM, incubated for 1 week at about 37° C., and Aged-Aβ25-35 was prepared. The induction of apoptosis in neuron was performed by the replacement of the aforementioned culture medium (with the exception of L-glutamicacid) containing 10 μM Aged-Aβ25-35.
4) It was investigated that the suppressing effect of PGE1 on apoptosis induced by amyloid beta peptide. After dissolution of PGE1 in ethanol, when the aforementioned 2) Aged-Aβ25-35 was added to the culture medium, simultaneously PGE1 solution was added to it. The final concentration thereof was 1 μM.
Cells were washed with PBS (−) at 24 hrs after induction of apoptosis and fixed for 30 mins at room temperature using a 1% glutaraldehyde solution (in PBS). Next, cell were washed with PBS (−) two times and followed by incubation with 1 mM Hoechst 33342 solution (in PBS) for 2 mins. Afterwards, observation of nuclear chromatin morphology was conducted using a fluorescence microscope with 4 arbitrary visual fields. Normal cells and apoptotic cells (cell where chromatin fragmentation or condensation was appeared) were counted, and the ratio was calculated as the incidence of apoptosis. The n was 3.
6) The relationship between PGT inhibitors and apoptosis induced by amyloid beta peptide was investigated. BrCG, which is a PGT inhibitor, with a final concentration of 60 μM was added simultaneously with PGE1 but other manners were in accordance with the aforementioned ones in 1)-5).
It was investigated that the influence of PGT antisense on the inhibitory effect of PGE1 against apoptosis induced by amyloid beta peptide. PGT antisense was used as it is with regard to the oligonucleotide in Experiment 3. The addition concentration thereof was 1.5 μM. Incidence of apoptosis was performed in accordance with Experiment 5. Then was 3.
1) Drugs having an inhibitory activity against induction of apoptosis by amyloid beta peptide were investigated. After dissolving test drugs (PGE1, PGK1, PGK2, and bicyclo PGE2) in ethanol, when Aged-Aβ25-35 was added to the culture medium, simultaneously test drug solution were added to it. But other manners were in accordance with Experiment 5. Ratio of normal cells and apoptotic cells allowed calculation of the rate of inhibition of apoptosis induction.

[2] = system: SAPK/JNK; experiment: SAPK/JNK activation in PC12 cells after NGF withdrawal, Western blot; assay type: cell-based, rat; set-up: key to Degree of luminescence: +++ is extremely strong; + is confirmed luminescence; ± is poor luminescence; settings: for Degree of luminescence: phosphorylated JNK band
Procedure: 4) Intercellular signals via SAPK/JNK Stress-activated protein kinase/Jun N-terminal kinase (abbreviated SAPK/JNK) is associated with apoptosis induction. Thus, intercellular signals within cells via SAPK/JNK were investigated based upon effects with respect to variations in SAPK/JNK activity.
The present experiment was performed with Western blot analysis. Individual additives were added to cell culturing medium for PC12 cells in accordance with the aforementioned experiment. Culturing was performed for 1-4 hrs after withdrawal of NGF. PC12 cells were lysed with a buffer solution, centrifuged, and the supernatant of cell lysate was prepared. After said supernatant was incubated with JNK 1 polyclonal antibodies (Santa Cruz Biotechnology) at 4° C. for 1 hr. Protein A sepharose was added to it. The resultant was incubated for 1 hr and the immunoprecipitate as described below was provided. […] of cell lysate was conducted with SDS-PAGE electrophoresis, and transferred to a nylon membrane (Amersham Pharmacia Biotech). Blotting of phosphorylated (active) JNK antibodies (Santa Cruz Biotechnology) was performed with this membrane, and bands were detected in accordance with the instruction manual. Intercellular signals within cells were amplified by chemiluminescence and auto radioactivity methods (FCL, Amersham Pharmacia Biotech).

[3] = system: differentiated PC12 cells; experiment: Suppression of apoptosis in differentiated PC12 cells after NGF withdrawal, Hoechst 33342 staining; assay type: cell-based, rat; settings: for Incidence of apoptosis (%): 24 hrs, NGF withdrawal, mean ± SEM
Procedure: (1) After growing rat adrenal pheochromocytoma PC12 cells (obtained by: ATCC; importer: Dainippon Pharmaceutical) with RPMI1640 containing 10 ml/l heat-inactivated horse serum and 5 ml/l heat-inactivated fetal calf serum, culturing was performed with RPMI1640 containing mouse β NGF (100 ng/ml), N2 supplement, and TIP (5 μg/ml transferrin, 5 μg/ml insulin, and 10 ng/ml progesterone). Differentiation to neuron-like cells was performed.
(2) Differentiated PC12 cells were washed with Neurobasal culture medium. After replacing the culture medium with RPMI1640 not containing β NGF, N2 supplement, and TIP, mouse β NGF antibodies (final concentration: 50 ng/ml) were added. By culturing for 24 hrs, apoptosis was induced.
(3) A PGE1 ethanol solution was added (final concentration:
0.01-1 μM) to fresh culture medium during medium replacement and culturing was performed for the same amount of time. As a negative control, a solvent (ethanol) alone was added in the same manner and culturing was performed for the same period of time. Apoptosis detection was performed by Hoechst 33342 staining (at 1 mM with a reaction in 2 minutes at room temperature) after fixation (room temperature for 30 mins) of cells with a 1% glutaraldehyde solution. Observation was made from 5 arbitrary visual fields using a fluorescence microscope. Total cell and apoptotic cells were counted, and incident of apoptosis was calculated.
(4) The values obtained were expressed as means±SEM. As for statistical analysis, a student's t-test (hereafter noted as a t-test) was used for two groups and Dunnet's test was used after one-way layout dimensional analysis (one-way ANOVA) for numerous groups; critical values for both were considered to be a significant difference below 5%.

In the case of `CCCCC[C@H](O)/C=C/[C@H]1[C@H](O)CC(=O)[C@@H]1CCCCCCC(=O)O` [PGE1, prostaglandin E1], the “Effect on apoptosis induced by amyloid beta peptide (in words)” value [1] is reported as “suppressed apoptosis inducted by amyloid beta peptide”, the “Incidence of apoptosis (%)” value ([1]; Experiment 5, PGE1 1 μM, 10 μM Aged-Aβ25-35, 24 hrs, n 3) is reported as 23 ± 2 % and the “Incidence of apoptosis (%)” value ([1]; Experiment 6, PGE1, Aged-Aβ25-35, n 3) is reported as 23 ± 2 %. For the same molecule, the “Inhibition of apoptosis induction (%)” value ([1]; Experiment 7, test drug added with Aged-Aβ25-35) was 38.2%, the “Effect on SAPK/JNK activation (in words)” value ([2]; 1 hr after NGF withdrawal) was “the activation was suppressed” and the Degree of luminescence ([2]; PGE1 0.1 μM) was “+”. The Degree of luminescence ([2]; PGE1 1 μM) was “±”, the “Incidence of apoptosis (%)” value ([3]; PGE1 0.01 μM) was 21.3 ± 1.5% and the “Incidence of apoptosis (%)” value ([3]; PGE1 0.1 μM) was 19.1 ± 8.1%. For the same molecule, the “Effect on cell apoptosis (in words)” value ([3]; PGE1 1 μM) was “suppressed cell apoptosis” and the “Incidence of apoptosis (%)” value ([3]; PGE1 1 μM) was 17.1 ± 0.6%.
